{
  "source": "patent US10131652B2",
  "about": "“Pyrimidinyloxy benzene derivatives as herbicides” (E. I. DU PONT DE NEMOURS AND COMPANY, priority 2014, dated 2018)",
  "assay_type_in_all_cases": "in vivo",
  "key": {"[1]": {"tested_on": "Italian ryegrass (Lolium multiflorum)", "assay": "Test B pre-/postemergence plant response", "procedure,_shortened": "(§1)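 Steps: plant seeds in loam soil–sand mix; spray soil preemergence, and in parallel spray 2–10 cm one- to two-leaf plants postemergence; hold ~10 days in greenhouse; visually rate injury against untreated controls (0 = no effect, 100 = complete control).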"}, "[2]": {"tested_on": "barnyardgrass (Echinochloa crus-galli)", "assay": "Test B pre-/postemergence plant response", "procedure,_shortened": "as §1"}, "corn (Zea mays)": {"tested_on": "corn (Zea mays)", "assay": "Test B pre-/postemergence plant response", "procedure,_shortened": "as §1"}, "[3]": {"tested_on": "giant foxtail (Setaria faberii)", "assay": "Test B pre-/postemergence plant response", "procedure,_shortened": "as §1"}, "kochia (Kochia scoparia) [4]": {"tested_on": "kochia (Kochia scoparia)", "assay": "Test B pre-/postemergence plant response", "procedure,_shortened": "as §1"}, "[5]": {"tested_on": "pigweed (Amaranthus retroflexus)", "assay": "Test B pre-/postemergence plant response", "procedure,_shortened": "as §1"}, "[6]": {"tested_on": "ragweed (common ragweed, Ambrosia elatior)", "assay": "Test B pre-/postemergence plant response", "procedure,_shortened": "as §1"}, "[7]": {"tested_on": "wheat (Triticum aestivum)", "assay": "Test B pre-/postemergence plant response", "procedure,_shortened": "as §1"}, "[8]": {"tested_on": "blackgrass (Alopecurus myosuroides)", "assay": "Test B postemergence plant response", "procedure,_shortened": "(§2)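 Visual injury rating, 0–100 (0 = no effect, 100 = complete control), vs untreated controls ~10 days after postemergence spray; greenhouse; potted loam soil/sand; plants 2–10 cm, 1–2 leaf stage.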"}, "[9]": {"tested_on": "galium (catchweed bedstraw, Galium aparine)", "assay": "Test B postemergence plant response", "procedure,_shortened": "as §2"}, "[10]": {"tested_on": "barnyardgrass (Echinochloa crus-galli)", "assay": "Test C flooded paddy test plant response", "conditions": "Flood, 250 g ai/ha; scale of 0 to 100 where 0 is no effect and 100 is complete control; 13 to 15 days", "procedure,_shortened": "(§3)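 Greenhouse paddy assay, 13–15 days. Treatment into 3 cm floodwater over 2-leaf plants; visual 0–100 rating against controls.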"}, "[11]": {"tested_on": "ducksalad (Heteranthera limosa)", "assay": "Test C flooded paddy test plant response", "conditions": "Flood, 250 g ai/ha; scale of 0 to 100 where 0 is no effect and 100 is complete control; 13 to 15 days", "procedure,_shortened": "as §3"}, "rice (Oryza sativa)": {"tested_on": "rice (Oryza sativa)", "assay": "Test C flooded paddy test plant response", "conditions": "Flood, 250 g ai/ha; scale of 0 to 100 where 0 is no effect and 100 is complete control; 13 to 15 days", "procedure,_shortened": "as §3"}, "[12]": {"tested_on": "small-flower umbrella sedge (Cyperus difformis)", "assay": "Test C flooded paddy test plant response", "conditions": "Flood, 250 g ai/ha; scale of 0 to 100 where 0 is no effect and 100 is complete control; 13 to 15 days", "procedure,_shortened": "as §3"}, "[13]": {"tested_on": "chickweed (common chickweed, Stellaria media)", "assay": "Test D postemergence plant response", "conditions": "for Chickweed plant response rating: scale 0 to 100 (0 no effect, 100 complete control)", "procedure,_shortened": "(§4)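 Visual 0–100 rating vs controls (0 = no effect, 100 = complete control), scored 13–15 d after postemergence spray. Plants 1- to 4-leaf stage (2–18 cm), potted in peat/vermiculite mix, kept in greenhouse.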"}, "kochia (Kochia scoparia) [14]": {"tested_on": "kochia (Kochia scoparia)", "assay": "Test D postemergence plant response", "procedure,_shortened": "as §4"}, "wild oat (Avena fatua)": {"tested_on": "wild oat (Avena fatua)", "assay": "Test D postemergence plant response", "procedure,_shortened": "as §4"}, "[15]": {"conditions": "125 g ai/ha, postemergence, 0 to 100 scale, 0 no effect, 100 complete control"}, "[16]": {"conditions": "Postemergence, 500 g ai/ha, 0 to 100 scale (0 no effect, 100 complete control)"}, "[17]": {"conditions": "Preemergence, 125 g ai/ha, 0 to 100 scale (0 no effect, 100 complete control)"}, "[18]": {"conditions": "Preemergence, 500 g ai/ha, 0 to 100 scale where 0 is no effect and 100 is complete control"}, "[19]": {"conditions": "62 g ai/ha, scale 0 to 100, 0 no effect, 100 complete control"}, "[20]": {"conditions": "31 g ai/ha, scale 0 to 100 (0 no effect, 100 complete control)"}},
  "data": [
    {"smiles": "FC(F)(F)c1cc(-c2c(I)cccc2Oc2ncc(Cl)cn2)no1", "note": "[Compound 156]", "values": [
      {"measurement": "Plant response rating, Ryegrass, Italian", "setting": "[1]; [15]", "result": 30},
      {"measurement": "Plant response rating, Ryegrass, Italian", "setting": "[1]; [16]", "result": 70},
      {"measurement": "Ryegrass, Italian plant response rating", "setting": "[1]; [17]", "result": 0},
      {"measurement": "Plant response rating, Ryegrass, Italian", "setting": "[1]; [18]", "result": 0},
      {"measurement": "Plant response rating, Barnyardgrass", "setting": "[2]; [15]", "result": 0},
      {"measurement": "Plant response rating, Barnyardgrass", "setting": "[2]; [16]", "result": 20},
      {"measurement": "Barnyardgrass plant response rating", "setting": "[2]; [17]", "result": 0},
      {"measurement": "Plant response rating, Barnyardgrass", "setting": "[2]; [18]", "result": 20},
      {"measurement": "Plant response rating, Corn", "setting": "corn (Zea mays); [15]", "result": 20},
      {"measurement": "Plant response rating, Corn", "setting": "corn (Zea mays); [16]", "result": 40},
      {"measurement": "Plant response rating, Foxtail, Giant", "setting": "[3]; [15]", "result": 20},
      {"measurement": "Plant response rating, Foxtail, Giant", "setting": "[3]; [16]", "result": 90},
      {"measurement": "Foxtail, Giant plant response rating", "setting": "[3]; [17]", "result": 20},
      {"measurement": "Plant response rating, Foxtail, Giant", "setting": "[3]; [18]", "result": 80},
      {"measurement": "Plant response rating, Kochia", "setting": "kochia (Kochia scoparia) [4]; [15]", "result": 90},
      {"measurement": "Plant response rating, Kochia", "setting": "kochia (Kochia scoparia) [4]; [16]", "result": 90},
      {"measurement": "Kochia plant response rating", "setting": "kochia (Kochia scoparia) [4]; [17]", "result": 20},
      {"measurement": "Plant response rating, Kochia", "setting": "kochia (Kochia scoparia) [4]; [18]", "result": 40},
      {"measurement": "Plant response rating, Pigweed", "setting": "[5]; [15]", "result": 90},
      {"measurement": "Plant response rating, Pigweed", "setting": "[5]; [16]", "result": 100},
      {"measurement": "Pigweed plant response rating", "setting": "[5]; [17]", "result": 80},
      {"measurement": "Plant response rating, Pigweed", "setting": "[5]; [18]", "result": 100},
      {"measurement": "Plant response rating, Ragweed", "setting": "[6]; [15]", "result": 20},
      {"measurement": "Plant response rating, Ragweed", "setting": "[6]; [16]", "result": 40},
      {"measurement": "Ragweed plant response rating", "setting": "[6]; [17]", "result": 0},
      {"measurement": "Plant response rating, Ragweed", "setting": "[6]; [18]", "result": 0},
      {"measurement": "Plant response rating, Wheat", "setting": "[7]; [15]", "result": 20},
      {"measurement": "Plant response rating, Wheat", "setting": "[7]; [16]", "result": 30},
      {"measurement": "Plant response rating, Blackgrass", "setting": "[8]; [15]", "result": 20},
      {"measurement": "Plant response rating, Blackgrass", "setting": "[8]; [16]", "result": 40},
      {"measurement": "Plant response rating, Galium", "setting": "[9]; [15]", "result": 90},
      {"measurement": "Plant response rating, Galium", "setting": "[9]; [16]", "result": 100},
      {"measurement": "Barnyardgrass plant response rating", "setting": "[10]", "result": 0},
      {"measurement": "Ducksalad plant response rating", "setting": "[11]", "result": 0},
      {"measurement": "Rice plant response rating", "setting": "rice (Oryza sativa)", "result": 0},
      {"measurement": "Sedge, Umbrella plant response rating", "setting": "[12]", "result": 0},
      {"measurement": "Plant response rating (scale 0 to 100), Chickweed", "setting": "[13]; 8 g ai/ha", "result": 5},
      {"measurement": "Chickweed plant response rating", "setting": "[13]; 16 g ai/ha", "result": 5},
      {"measurement": "Chickweed plant response rating", "setting": "[13]; 31 g ai/ha", "result": 45},
      {"measurement": "Plant response rating, Chickweed", "setting": "[13]; [19]", "result": 70},
      {"measurement": "Plant response rating (scale 0 to 100), Kochia", "setting": "kochia (Kochia scoparia) [14]; 8 g ai/ha", "result": 0},
      {"measurement": "Kochia plant response rating", "setting": "kochia (Kochia scoparia) [14]; [20]", "result": 30},
      {"measurement": "Plant response rating, Kochia", "setting": "kochia (Kochia scoparia) [14]; [19]", "result": 45},
      {"measurement": "Plant response rating (scale 0 to 100), Oat, Wild", "setting": "wild oat (Avena fatua); 8 g ai/ha", "result": 0},
      {"measurement": "Oat, Wild plant response rating", "setting": "wild oat (Avena fatua); [20]", "result": 0},
      {"measurement": "Plant response rating, Oat, Wild", "setting": "wild oat (Avena fatua); [19]", "result": 0}
    ]}
  ]
}
